System: KRAS-mutant PDC complex spheroid viability
Assay: Anticancer human tumor 186277-243-T-J2-PDC patient-derived colon adenocarcinoma cell line growth inhibition [KRAS2]
Conditions: for IC50: curve of first compound; for viability, T/C: stronger effect = lower value
In short: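 KRAS-mutant tumor cells were grown as spheroids with HUVEC endothelial cells and human MSCs as stroma. Targeted agents were tested alone and with KRAS pathway inhibitors. Doses started at or near clinical Cmax, or 10 microM, descending half-log.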

[1] = second compound 0.1 µM, first compound 0.0316 µM
[2] = second compound 0.1 µM, first compound 0.1 µM
[3] = second compound 0.1 µM, first compound 0.316 µM
[4] = second compound 0.1 µM, first compound 1 µM
[5] = second compound 0.1 µM, first compound 3.16 µM
[6] = second compound 0.1 µM, first compound 10 µM
[7] = second compound 0.316 µM, first compound 0.0316 µM
[8] = second compound 0.316 µM, first compound 0.1 µM
[9] = second compound 0.316 µM, first compound 0.316 µM
[10] = second compound 0.316 µM, first compound 1 µM
[11] = second compound 0.316 µM, first compound 3.16 µM
[12] = second compound 0.316 µM, first compound 10 µM
[13] = second compound 1 µM, first compound 0.0316 µM
[14] = second compound 1 µM, first compound 0.1 µM
[15] = second compound 1 µM, first compound 0.316 µM
[16] = second compound 1 µM, first compound 1 µM
[17] = second compound 1 µM, first compound 3.16 µM
[18] = second compound 1 µM, first compound 10 µM
[19] = second compound 3.16 µM, first compound 0.0316 µM
[20] = second compound 3.16 µM, first compound 0.1 µM
[21] = second compound 3.16 µM, first compound 0.316 µM
[22] = second compound 3.16 µM, first compound 1 µM
[23] = second compound 3.16 µM, first compound 3.16 µM
[24] = second compound 3.16 µM, first compound 10 µM
[25] = second compound 10 µM, first compound 0.0316 µM
[26] = second compound 10 µM, first compound 0.1 µM
[27] = second compound 10 µM, first compound 0.316 µM
[28] = second compound 10 µM, first compound 1 µM
[29] = second compound 10 µM, first compound 3.16 µM
[30] = second compound 10 µM, first compound 10 µM
[31] = second compound 0.1 µM, first compound 0.000316 µM
[32] = second compound 0.1 µM, first compound 0.001 µM
[33] = second compound 0.1 µM, first compound 0.00316 µM
[34] = second compound 0.1 µM, first compound 0.01 µM
[35] = second compound 0.316 µM, first compound 0.000316 µM
[36] = second compound 0.316 µM, first compound 0.001 µM
[37] = second compound 0.316 µM, first compound 0.00316 µM
[38] = second compound 0.316 µM, first compound 0.01 µM
[39] = second compound 1 µM, first compound 0.000316 µM
[40] = second compound 1 µM, first compound 0.001 µM
[41] = second compound 1 µM, first compound 0.00316 µM
[42] = second compound 1 µM, first compound 0.01 µM
[43] = second compound 3.16 µM, first compound 0.000316 µM
[44] = second compound 3.16 µM, first compound 0.001 µM
[45] = second compound 3.16 µM, first compound 0.00316 µM
[46] = second compound 3.16 µM, first compound 0.01 µM
[47] = second compound 10 µM, first compound 0.000316 µM
[48] = second compound 10 µM, first compound 0.001 µM
[49] = second compound 10 µM, first compound 0.00316 µM
[50] = second compound 10 µM, first compound 0.01 µM
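Wherever viability, T/C is given: viability read after seven days of compound exposure; 100% = DMSO vehicle-treated spheroids so lower means less viable.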

Structure (SMILES) | IC50 (second compound 0.1 µM) | IC50 (second compound 0.316 µM) | IC50 (second compound 1 µM) | IC50 (second compound 3.16 µM) | IC50 (second compound 10 µM) | viability, T/C [1] | viability, T/C [2] | viability, T/C [3] | viability, T/C [4] | viability, T/C [5] | viability, T/C [6] | viability, T/C [7] | viability, T/C [8] | viability, T/C [9] | viability, T/C [13] | viability, T/C [14] | viability, T/C [19] | viability, T/C [20] | viability, T/C [25] | viability, T/C [26] | further results
CC(C)NCC(C(=O)N1CCN(c2ncnc3c2C(C)CC3O)CC1)c1ccc(Cl)cc1 (stereo not given) + CNCc1ccccc1-c1csc(C(C)Nc2nc(C)nc3cc(OC)c(OC)cc23)c1 | 585 nM | 469 nM | 298 nM | < 31.6 nM | < 31.6 nM | 111% | 106% | 61.2% | 37.8% | 24.1% | 11.2% | 121% | 96.6% | 60.3% | 109% | 92.4% | 0.41% | 9.82% | 0.14% | 0.12% | viability, T/C [10]: 29.4%; viability, T/C [11]: 19.6%; viability, T/C [12]: 10.6%; viability, T/C [15]: 44.9%; viability, T/C [16]: 24.1%; viability, T/C [17]: 13.3%; viability, T/C [18]: 8.81%; viability, T/C [21]: 0.48%; viability, T/C [22]: 1.02%; viability, T/C [23]: 0.58%; viability, T/C [24]: 0.47%; viability, T/C [27]: 0.12%; viability, T/C [28]: 0.12%; viability, T/C [29]: 0.13%; viability, T/C [30]: 0.2%
CC(C)n1nc(-c2ccc3oc(N)nc3c2)c2c(N)ncnc21 + CNCc1ccccc1-c1csc(C(C)Nc2nc(C)nc3cc(OC)c(OC)cc23)c1 | 5.68 nM | 4.02 nM | 5.06 nM | 1.17 nM | < 0.316 nM | 28.6% | 16.6% |  |  |  |  | 23.4% | 19.7% |  | 22.9% | 14.9% | 8.24% | 1.61% | 0.1% | 0.16% | viability, T/C [31]: 108%; viability, T/C [32]: 92.5%; viability, T/C [33]: 57%; viability, T/C [34]: 40.3%; viability, T/C [35]: 98.8%; viability, T/C [36]: 80.8%; viability, T/C [37]: 54.7%; viability, T/C [38]: 32.9%; viability, T/C [39]: 96.3%; viability, T/C [40]: 88.8%; viability, T/C [41]: 55.8%; viability, T/C [42]: 37.7%; viability, T/C [43]: 63.9%; viability, T/C [44]: 55.9%; viability, T/C [45]: 14%; viability, T/C [46]: 16.8%; viability, T/C [47]: 0.14%; viability, T/C [48]: 0.13%; viability, T/C [49]: 0.11%; viability, T/C [50]: 0.1%
CC1(C)CCC(CN2CCN(c3ccc(C(=O)NS(=O)(=O)c4ccc(NCC5CCOCC5)c([N+](=O)[O-])c4)c(Oc4cnc5[nH]ccc5c4)c3)CC2)=C(c2ccc(Cl)cc2)C1 + CNCc1ccccc1-c1csc(C(C)Nc2nc(C)nc3cc(OC)c(OC)cc23)c1 | 2130 nM | 2260 nM | 2160 nM | 90.7 nM | < 31.6 nM | 120% | 102% | 107% | 110% | 19.2% | 1.52% | 115% | 117% | 117% | 126% | 125% | 80.2% | 44.8% | 0.17% | 0.16% | viability, T/C [10]: 119%; viability, T/C [11]: 22.1%; viability, T/C [12]: 1.59%; viability, T/C [15]: 112%; viability, T/C [16]: 116%; viability, T/C [17]: 17.2%; viability, T/C [18]: 0.88%; viability, T/C [21]: 29.2%; viability, T/C [22]: 7.62%; viability, T/C [23]: 0.22%; viability, T/C [24]: 0.13%; viability, T/C [27]: 0.14%; viability, T/C [28]: 0.12%; viability, T/C [29]: 0.12%; viability, T/C [30]: 0.2%
Cn1ncnc1[C@H]1c2n[nH]c(=O)c3cc(F)cc(c23)N[C@@H]1c1ccc(F)cc1 + CNCc1ccccc1-c1csc(C(C)Nc2nc(C)nc3cc(OC)c(OC)cc23)c1 | > 100 nM | > 100 nM | > 100 nM | < 0.316 nM | < 0.316 nM | 83.8% | 68.9% |  |  |  |  | 76.4% | 68.7% |  | 70.4% | 59.5% | 14.5% | 10.9% | 0.13% | 0.21% | viability, T/C [31]: 113%; viability, T/C [32]: 109%; viability, T/C [33]: 109%; viability, T/C [34]: 101%; viability, T/C [35]: 117%; viability, T/C [36]: 106%; viability, T/C [37]: 115%; viability, T/C [38]: 89.3%; viability, T/C [39]: 112%; viability, T/C [40]: 110%; viability, T/C [41]: 97.9%; viability, T/C [42]: 86%; viability, T/C [43]: 25.5%; viability, T/C [44]: 0.4%; viability, T/C [45]: 28.8%; viability, T/C [46]: 12.7%; viability, T/C [47]: 0.14%; viability, T/C [48]: 0.14%; viability, T/C [49]: 0.14%; viability, T/C [50]: 0.13%
